# According to patent publication US10683297B2 (Sunshine Lake Pharma Co., Ltd., priority 2017, dated 2020):
# Marks after values point to notes of the source that are not given here.
# Key:
# FLT3 (h) = target: T1, FLT3 (h) (Homo sapiens, UniProt P36888); experiment: FLT3 (h) kinase assay; format: biochemical; conditions: [γ-33P-ATP] 10 μM or KM values; cells of the FLT3 (h) column without (Flt4) tag
# T1 construct: purchased Millipore UK Ltd (assays performed there as a service)
# T1 sequence (P36888 27-993): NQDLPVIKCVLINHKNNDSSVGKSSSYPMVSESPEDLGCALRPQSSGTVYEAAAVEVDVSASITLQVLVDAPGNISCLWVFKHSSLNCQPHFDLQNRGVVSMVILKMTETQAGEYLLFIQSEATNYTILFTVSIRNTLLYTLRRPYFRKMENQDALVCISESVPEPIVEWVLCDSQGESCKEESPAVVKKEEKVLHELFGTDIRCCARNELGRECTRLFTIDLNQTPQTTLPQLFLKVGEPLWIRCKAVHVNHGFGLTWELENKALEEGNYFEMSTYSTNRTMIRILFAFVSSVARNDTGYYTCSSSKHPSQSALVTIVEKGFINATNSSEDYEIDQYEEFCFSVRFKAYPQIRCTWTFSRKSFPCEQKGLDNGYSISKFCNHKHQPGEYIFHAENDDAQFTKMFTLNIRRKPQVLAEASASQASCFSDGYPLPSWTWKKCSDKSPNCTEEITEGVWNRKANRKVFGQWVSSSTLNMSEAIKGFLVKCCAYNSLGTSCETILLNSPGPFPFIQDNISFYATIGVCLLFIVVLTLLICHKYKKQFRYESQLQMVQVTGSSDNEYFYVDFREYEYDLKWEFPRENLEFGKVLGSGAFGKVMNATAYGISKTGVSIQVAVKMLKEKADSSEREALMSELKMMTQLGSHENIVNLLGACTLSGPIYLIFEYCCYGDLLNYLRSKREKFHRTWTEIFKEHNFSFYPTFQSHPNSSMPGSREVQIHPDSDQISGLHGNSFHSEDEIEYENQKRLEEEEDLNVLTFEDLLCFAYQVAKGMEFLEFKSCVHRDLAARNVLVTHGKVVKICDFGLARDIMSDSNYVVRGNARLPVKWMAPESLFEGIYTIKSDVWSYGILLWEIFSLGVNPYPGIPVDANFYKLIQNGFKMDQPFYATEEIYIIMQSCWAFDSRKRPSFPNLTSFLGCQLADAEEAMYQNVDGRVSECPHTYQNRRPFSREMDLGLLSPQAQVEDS
# Experimental: Kinase assays can be performed by measurement of incorporation of γ-^33P ATP into immobilized myelin basic protein (MBP). High binding white 384 well plates (Greiner) are coated with MBP (Sigma # M-1891) by incubation of 60 μL well of 20 μg/mL MBP in Tris-buffered saline (TBS; 50 mM Tris pH 8.0, 138 mM NaCl, 2.7 mM KCl) for 24 h at 4° C. Plates are washed 3× with 100 μL TBS. Kinase reactions are carried out in a total volume of 34 μL in kinase buffer (according to the need to make, for example, 5 mM Hepes pH 7.6, 15 mM NaCl, 0.01% bovine gamma globulin (Sigma #1-5506), 10 mM MgCl2, 1 mM DTT, 0.02% TritonX-100). Compound dilutions are performed in DMSO and added to assay wells to a final DMSO concentration of 1%. Each data point is measured in duplicate, and at least two duplicate assays are performed for each individual compound determination. Enzyme is added to final concentrations of 10 nM or 20 nM, for example. A mixture of unlabeled ATP and γ-^33P ATP is added to start the reaction (2×10^6 cpm of γ-^33P ATP per well (3000 Ci/mmole) and 10 μM unlabeled ATP, typically. The reactions are carried out for 1 hour at room temperature with shaking. Plates are washed 7× with TBS, followed by the addition of 50 μL well scintillation fluid (Wallac). Plates are read using a Wallac Trilux counter. This is only one format of such assays; various other formats are possible, as known to one skilled in the art.
# The above assay procedure can be used to determine the IC50 for inhibition and/or the inhibition constant, Ki. […] The IC50 value is estimated by preparing a 10 point curve using a ½ log dilution series (for example, a typical curve may be prepared using the following compound concentrations: 3 μM, 1 μM, 0.3 μM, 0.1 μM, 0.03 μM, 0.01 μM, 0.003 μM, 0.001 μM, 0.0003 μM and 0 μM).
# FLT3 (h) is incubated with 8 mM MOPS pH 7.0, 0.2 mM EDTA, 50 μM […], 10 mM MgAcetate and [γ-^33P-ATP] […] The reaction is initiated by the addition of the MgATP mix. […]
# [1] = system: PMA-induced increase in mouse ear thickness and weight; experiment: Topical PMA-induced acute atopic dermatitis in ICR mice; format: in vivo; conditions: ICR female mice, 0.3 mg/ear/bid topical
# Experimental: ICR female mice (20-30 g), five mice or nine mice/group, were used in this study. Five micrograms of PMA (phorbol 12-myristate 13-acetate) in 20 μL of ethanol was applied topically to the anterior and posterior surface of the right ear of each mouse. Twenty microliters of vehicle (ethanol/acetone ([…])=1/1); 0.3 mg of EX. 68 ([…]); EX. 76, EX. 50, EX. 92 or EX. 65 (0.3 mg […]) were administrated to the same areas 30 minutes before and 15 minutes after PMA application. The thickness of right ears of each mouse was measured 6 hours after PMA stimulation. Ear weight of right ears of each mouse was weighed with analytical balance Each value represents the Mean±Sem. Statistical significance compared with model groups (*P<0.05; **P<0.01). Tables 5-1, 5-2 and 5-3 listed the inhibitory effect on PMA-induced increase in mouse ear thickness and weight. The compounds of the present invention have a good inhibitory effect on PMA-induced increase in mouse ear thickness and weight.
SMILES,IC50 (FLT3 (h)),Weight Inhibition ratio [1],"thickness (right ear) ([1]; 30 minutes before and 15 minutes after PMA, 6 hours after PMA, Mean±Sem)","Weight (right ear) ([1]; 30 minutes before and 15 minutes after PMA, Mean±Sem)",thickness Inhibition ratio ([1]; 6 hours after PMA)
"CCC1CN(c2ccc(C#N)nn2)CCC1Nc1nc(Nc2ccn3c(C)cnc3c2)ncc1Cl (stereo not shown) [Example 3, 6-(4-((5-chloro-2-((3-methylimidazo[1,2-a]pyridin-7-yl)amino)pyrimidin-4-yl)amino)-3-ethylpiperidin-1-yl)pyridazine-3-carbonitrile]",591 nM,,,,
"CC(C)(O)c1cnc2cc(Nc3ncc(Cl)c(NC4CCN(c5ccc(C#N)cn5)CC4)n3)ccn12 [Example 68, 6-(4-((5-chloro-2-((3-(2-hydroxypropan-2-yl)imidazo[1,2-a]pyridin-7-yl)amino)pyrimidin-4-yl)amino)piperidin-1-yl)nicotinonitrile]",,80.6%,0.219 ± 0.007** mm,18.11 ± 1.14* mg,86.6%
"Cc1cnc2cc(Nc3ncc(Cl)c(NC4CCN(c5ccc(C#N)nn5)CC4)n3)ccn12 [Example 12, 6-(4-((5-chloro-2-((3-methylimidazo[1,2-a]pyridin-7-yl)amino)pyrimidin-4-yl)amino)piperidin-1-yl)pyridazine-3-carbonitrile]",667 nM,,,,
"CCC1CN(c2ccc(C#N)cn2)CCC1Nc1nc(Nc2ccn3c(C)cnc3c2)ncc1Cl (stereo not shown) [Example 2, 6-(4-((5-chloro-2-((3-methylimidazo[1,2-a]pyridin-7-yl)amino)pyrimidin-4-yl)amino)-3-ethylpiperidin-1-yl)nicotinonitrile]",287 nM,,,,
